Results from PubChem BioAssay AID248 (DTP/NCI, 2004).
Toxic doses and inconclusive results are not listed. Cut-off read from the data, not from the text of the source: active = T/C of 150% or more; inactive = T/C below 125%.

Test system: L1210 leukemia ip in BDF1 mice, survival T/C
Assay: NCI In Vivo Anticancer Drug Screen. Data for tumor model L1210 Leukemia (intraperitoneal) in B6D2F1 (BDF1) mice
Details: endpoint: mean survival time, higher = longer survival
Procedure, shortened: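 Value reflects the ratio of survival in compound-treated mice to survival in vehicle-treated controls, with both groups carrying the same transplanted tumor.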

[1] = dose: 100.0 mg/kg/injection, schedule: Q01DX009 (ip), vehicle: Klucel (hydroxypropylcellulose) (HPC)
[2] = dose: 100.0 mg/kg/injection, schedule: Q04DX003 (ip), vehicle: Klucel (hydroxypropylcellulose) (HPC)
[3] = dose: 200.0 mg/kg/injection, schedule: Q01DX009 (ip), vehicle: Klucel (hydroxypropylcellulose) (HPC)
[4] = dose: 200.0 mg/kg/injection, schedule: Q04DX003 (ip), vehicle: Klucel (hydroxypropylcellulose) (HPC)
[5] = dose: 400.0 mg/kg/injection, schedule: Q01DX009 (ip), vehicle: Klucel (hydroxypropylcellulose) (HPC)
[6] = dose: 400.0 mg/kg/injection, schedule: Q04DX003 (ip), vehicle: Klucel (hydroxypropylcellulose) (HPC)
[7] = dose: 100.0 mg/kg/injection, schedule: Q01DX009 (ip), vehicle: saline
[8] = dose: 200.0 mg/kg/injection, schedule: Q01DX009 (ip), vehicle: saline
[9] = dose: 400.0 mg/kg/injection, schedule: Q01DX009 (ip), vehicle: saline
[10] = dose: 100.0 mg/kg/injection, schedule: Q04DX003 (ip), vehicle: saline with Tween-80
[11] = dose: 200.0 mg/kg/injection, schedule: Q04DX003 (ip), vehicle: saline with Tween-80
[12] = dose: 400.0 mg/kg/injection, schedule: Q04DX003 (ip), vehicle: saline with Tween-80
[13] = dose: 100.0 mg/kg/injection, schedule: Q01DX001 (ip), vehicle: carboxymethylcellulose (CMC)
[14] = dose: 200.0 mg/kg/injection, schedule: Q01DX001 (ip), vehicle: carboxymethylcellulose (CMC)
[15] = dose: 400.0 mg/kg/injection, schedule: Q01DX001 (ip), vehicle: carboxymethylcellulose (CMC)

Measured: T/C

O=C(NNC(=O)c1ccc([N+](=O)[O-])cc1)c1ccccc1
inactive: [1] 96 % of control | [2] 105 % of control | [3] 101 % of control | [4] 103 % of control | [5] 94 % of control | [6] 100 % of control

O=Cc1ccc(-c2ccc([N+](=O)[O-])cc2)o1
inactive: dose: 100.0 mg/kg/injection, schedule: Q01DX001 (ip), vehicle: saline with Tween-80 92 % of control | dose: 200.0 mg/kg/injection, schedule: Q01DX001 (ip), vehicle: saline with Tween-80 94 % of control | dose: 400.0 mg/kg/injection, schedule: Q01DX001 (ip), vehicle: saline with Tween-80 103 % of control

O=[N+]([O-])c1cccc(N=Cc2ccc3c(c2)OCO3)c1
inactive: [7] 96 % of control | [8] 93 % of control | [9] 100 % of control

CC(=C1C2CCC1C(C(=O)N(C)C)C2C(=O)N(C)C)C(Cl)(Cl)Cl (centres undefined)
inactive: dose: 100.0 mg/kg/injection, schedule: Q04DX002 (ip), vehicle: Klucel (hydroxypropylcellulose) (HPC) 94 % of control | dose: 200.0 mg/kg/injection, schedule: Q04DX002 (ip), vehicle: Klucel (hydroxypropylcellulose) (HPC) 110 % of control | dose: 400.0 mg/kg/injection, schedule: Q04DX002 (ip), vehicle: Klucel (hydroxypropylcellulose) (HPC) 90 % of control

Cc1nc(N)[nH]c(=O)c1CCCN=Cc1cccc([N+](=O)[O-])c1
inactive: dose: 12.5 mg/kg/injection, schedule: Q01DX001 (ip), vehicle: Klucel (hydroxypropylcellulose) (HPC) 110 % of control | dose: 25.0 mg/kg/injection, schedule: Q01DX001 (ip), vehicle: Klucel (hydroxypropylcellulose) (HPC) 103 % of control | dose: 50.0 mg/kg/injection, schedule: Q01DX001 (ip), vehicle: Klucel (hydroxypropylcellulose) (HPC) 97 % of control

BrC1C2CCC(CC2)C1Br (centres undefined)
inactive: [1] 92 % of control | [2] 100 % of control | [3] 92 % of control | [4] 100 % of control | [5] 94 % of control | [6] 96 % of control

Cc1ccccc1N1C(N)=NC(N)=NC1(C)C
inactive: dose: 6.25 mg/kg/injection, schedule: Q01DX009 (ip), vehicle: Klucel (hydroxypropylcellulose) (HPC) 89 % of control | dose: 12.5 mg/kg/injection, schedule: Q01DX009 (ip), vehicle: Klucel (hydroxypropylcellulose) (HPC) 91 % of control | dose: 25.0 mg/kg/injection, schedule: Q01DX009 (ip), vehicle: Klucel (hydroxypropylcellulose) (HPC) 100 % of control | dose: 50.0 mg/kg/injection, schedule: Q01DX009 (ip), vehicle: Klucel (hydroxypropylcellulose) (HPC) 96 % of control | dose: 75.0 mg/kg/injection, schedule: Q01DX001 (ip), vehicle: saline 103 % of control

O=[N+]([O-])c1ccc(Cl)c(OCCCCOc2ccc(S(=O)(=O)F)cc2)c1
inactive: [2] 90 % of control | [4] 94 % of control

C#CC(C)ON1C(=O)c2ccccc2C1=O (centres undefined)
inactive: dose: 100.0 mg/kg/injection, schedule: Q01DX009 (ip), vehicle: saline sonified 96 % of control | [10] 115 % of control | dose: 200.0 mg/kg/injection, schedule: Q01DX009 (ip), vehicle: saline sonified 97 % of control | [11] 114 % of control | dose: 400.0 mg/kg/injection, schedule: Q01DX009 (ip), vehicle: saline sonified 104 % of control | [12] 109 % of control

CCN(C(=O)Nc1ccccc1)c1ccccc1C
inactive: dose: 100.0 mg/kg/injection, schedule: Q01DX009 (ip), vehicle: saline with Tween-80 97 % of control | [10] 111 % of control | dose: 200.0 mg/kg/injection, schedule: Q01DX009 (ip), vehicle: saline with Tween-80 86 % of control | [11] 98 % of control | dose: 400.0 mg/kg/injection, schedule: Q01DX009 (ip), vehicle: saline with Tween-80 92 % of control | [12] 102 % of control

O=c1c2cccc3cccc(c32)c2nc3ccccc3n12
inactive: dose: 6.25 mg/kg/injection, schedule: Q01DX009 (ip), vehicle: saline with Tween-80 120 % of control | dose: 12.5 mg/kg/injection, schedule: Q01DX009 (ip), vehicle: saline with Tween-80 116 % of control | dose: 25.0 mg/kg/injection, schedule: Q01DX009 (ip), vehicle: saline with Tween-80 100 % of control | [10] 104 % of control | [11] 103 % of control

COC1OC2COC(c3ccccc3)OC2C(=O)C1OS(=O)(=O)c1ccc(C)cc1 (centres undefined)
inactive: [11] 89 % of control | [12] 86 % of control

O=[N+]([O-])c1cc(S(=O)(=O)O)cc(S(=O)(=O)O)c1O
inactive: [7] 102 % of control | dose: 100.0 mg/kg/injection, schedule: Q04DX003 (ip), vehicle: saline 94 % of control | [8] 94 % of control | dose: 200.0 mg/kg/injection, schedule: Q04DX003 (ip), vehicle: saline 100 % of control | [9] 91 % of control | dose: 400.0 mg/kg/injection, schedule: Q04DX003 (ip), vehicle: saline 93 % of control

COc1ccc(-c2ccc(OC)c(OC)c2)cc1OC
inactive: [13] 110 % of control | [14] 104 % of control | [15] 110 % of control

O=C(O)c1ccc2c(c1)C(=O)c1ccccc1-2
inactive: [13] 107 % of control | [14] 100 % of control | [15] 107 % of control

CCc1nc2[nH]c(N)nc(=S)c2cc1C
inactive: dose: 100.0 mg/kg/injection, schedule: Q01DX Z (ip), vehicle: methylcellulose (MC) 95 % of control | dose: 200.0 mg/kg/injection, schedule: Q01DX Z (ip), vehicle: methylcellulose (MC) 95 % of control
